PMC5384750 (PLoS ONE, 2017)

Legend:
[1] = system: IDE (S10 extract or rIDE); format: in vitro ADME; details: 20 ng sp6 or 30 ng vp6 with 5 μg S10 extract or 2 ng rIDE, up to 60 min; Western blot densitometry; at least 3 independent experiments per setting; value depends on the experimental setting
Procedure: Fig 9 Multiplication of PTAPPA-motifs stabilizes p6. 20 ng of sp6 or 30 ng of vp6 were incubated either with 5 μg S10 extract (A/B/C) or 2 ng of rIDE (D) for up to 60 min. Degradation efficiency was quantified via densitometric analyses of Western blots. Values represent the arithmetic mean ± SD of at least 3 independent experiments for each setting.
Typically 5 μg S10 were incubated with inhibitor or buffer and 20–100 ng sp6 at 37°C for 30 min. Reactions were stopped by addition of sample buffer and incubation at 95°C for 5 min. Remaining p6 was detected by Western blotting using an anti-p6 rabbit antiserum. Alternatively, 10 ng of BODIPY FL-labeled sp6 (sp6BY) were used as substrate and detected directly in the polyacrylamide gel by fluorescence scanning. In some experiments the amount of p6 was densitometrically quantified with the software AIDA (Raytest). For the in vitro degradation of amyloid-β 10 ng of Aβ-FITC (abcam) were used analogously to sp6BY. For the in vitro degradation of viral p6, VLPs were pelleted and lysed in IDE enzyme buffer (150 mM NaCl, 50 mM Tris pH 7.4, 0.5% (v/v) Triton X-100). The p6 content was estimated by Western blotting using a dilution series of sp6 with known concentrations. Equivalents of 15 ng were used for digestion experiments and subsequently detected by Western blotting. […]

[2] = target: T1, insulin-degrading enzyme (IDE) (Homo sapiens, UniProt P14735); test: Inhibition of Aβ-FITC degradation in S10 extract; format: biochemical; details: 10 ng FITC-labeled Aβ 1–40, 5 μg S10, 45 min, 37°C; fluorescence; four independent experiments
T1 construct: endogenous in cells; host or cells: HeLa cells (cytosolic S10 extract)
Procedure: […] Reactions were stopped by addition of sample buffer and incubation at 95°C for 5 min. Remaining p6 was detected by Western blotting using an anti-p6 rabbit antiserum. Alternatively, 10 ng of BODIPY FL-labeled sp6 (sp6BY) were used as substrate and detected directly in the polyacrylamide gel by fluorescence scanning. In some experiments the amount of p6 was densitometrically quantified with the software AIDA (Raytest). For the in vitro degradation of amyloid-β 10 ng of Aβ-FITC (abcam) were used analogously to sp6BY. For the in vitro degradation of viral p6, VLPs were pelleted and lysed in IDE enzyme buffer (150 mM NaCl, 50 mM Tris pH 7.4, 0.5% (v/v) Triton X-100). The p6 content was estimated by Western blotting using a dilution series of sp6 with known concentrations. Equivalents of 15 ng were used for digestion experiments and subsequently detected by Western blotting. Experiments carried out with recombinant IDE (Calbiochem) were performed in IDE enzyme buffer. Recombinant FITC-labeled insulin was purchased from Sigma.
Supplementary file pone.0174254.s003.tif: S3 Fig p6 competes with the in vitro degradation of Aβ. […] Aβ-FITC was detected by measurement of fluorescence excitation. The band marked with * represents Aβ-oligomers and has been described earlier. (B) Band intensities were quantified for four independent experiments and values represent the arithmetic mean ± SD. […]

[3] = In vitro degradation in cytosolic S10 HeLa cell extract; format: in vitro ADME; details: human, cytosolic S10 HeLa cell extract; 100 ng sp6, 5 μg S10 extract from HeLa cells, 37°C; Western blot (anti-p6), quantified; estimated from exponential decay; mean of 4 independent experiments
Procedure: (§1) For generation of S10, confluent dishes with HeLa cells were extensively washed and subsequently lysed with a modified S10 buffer (250 mM sucrose, 80 mM KCl, 10 mM Tris pH 7.6, 0.1% (v/v) Triton X-100 [91]). Debris and nuclei were removed by centrifugation at 10.000 × g for 10 min. Protein content was determined by BCA-Assay (Pierce) and aliquots stored at -80°C.
Typically 5 μg S10 were incubated with inhibitor or buffer and 20–100 ng sp6 at 37°C for 30 min. Reactions were stopped by addition of sample buffer and incubation at 95°C for 5 min. Remaining p6 was detected by Western blotting using an anti-p6 rabbit antiserum. Alternatively, 10 ng of BODIPY FL-labeled sp6 (sp6BY) were used as substrate and detected directly in the polyacrylamide gel by fluorescence scanning. In some experiments the amount of p6 was densitometrically quantified with the software AIDA (Raytest). For the in vitro degradation of amyloid-β 10 ng of Aβ-FITC (abcam) were used analogously to sp6BY. For the in vitro degradation of viral p6, VLPs were pelleted and lysed in IDE enzyme buffer (150 mM NaCl, 50 mM Tris pH 7.4, 0.5% (v/v) Triton X-100). The p6 content was estimated by Western blotting using a dilution series of sp6 with known concentrations. Equivalents of 15 ng were used for digestion experiments and subsequently detected by Western blotting. Experiments carried out with recombinant IDE (Calbiochem) were performed in IDE enzyme buffer. Recombinant FITC-labeled insulin was purchased from Sigma.

[4] = target: T2, recombinant IDE (rIDE) (Rattus norvegicus, UniProt P35559); test: In vitro degradation by recombinant IDE (extent, kinetics, cleavage sites); format: biochemical; details: 30 min, 37°C
T2 construct: purchased Calbiochem
Procedure: (A) 10 ng of sp6BY or insulin-FITC were incubated with indicated amounts of rIDE for 30 min at 37°C. Remaining amounts of sp6BY and insulin-FITC were detected by measurement of fluorescence excitation. (B) Results of four independently performed experiments. Values represent the arithmetic mean ± SD. (C) Increasing concentrations of sp6BY were incubated with rIDE for 10 min at 37°C. The velocities were calculated from the degradation of sp6BY and normalized for the amount of rIDE. Data points represent values from three independent experiments in a double-reciprocal Lineweaver-Burk plot.
Fig 8 Generation of stable p6 mutants. […] Reactions were stopped by adjusting the samples to 0.3% (w/v) […] and subsequently analyzed by mass spectrometry. Arrows above the primary sequence represent the detected cleavage sites, and initial and secondary cleavage sites are indicated as big or small arrows, respectively. […] (C) 10 ng of sp6BY were incubated with 250 μg/ml sp6 wt, 2xPTAPPA, 3xPTAPPA or only buffer and 5 μg S10 for 30 min at 37°C. sp6BY was detected by fluorescence emission and quantified. […]
Typically 5 μg S10 were incubated with inhibitor or buffer and 20–100 ng sp6 at 37°C for 30 min. […] Remaining p6 was detected by Western blotting using an anti-p6 rabbit antiserum. […] In some experiments the amount of p6 was densitometrically quantified with the software AIDA (Raytest). […]

[5] = target: T1, insulin-degrading enzyme (IDE); test: Inhibition of / competition with sp6 or sp6BY degradation in S10 extract; format: biochemical; details: 10 ng sp6BY, 5 μg S10 extract, 30 min, 37°C; fluorescence; mean of at least three independent experiments
Procedure: as §1
Reactions were stopped by addition of sample buffer and incubation at 95°C for 5 min. Remaining p6 was detected by Western blotting using an anti-p6 rabbit antiserum. Alternatively, 10 ng of BODIPY FL-labeled sp6 (sp6BY) were used as substrate and detected directly in the polyacrylamide gel by fluorescence scanning. In some experiments the amount of p6 was densitometrically quantified with the software AIDA (Raytest). For the in vitro degradation of amyloid-β 10 ng of Aβ-FITC (abcam) were used analogously to sp6BY. For the in vitro degradation of viral p6, VLPs were pelleted and lysed in IDE enzyme buffer (150 mM NaCl, 50 mM Tris pH 7.4, 0.5% (v/v) Triton X-100). The p6 content was estimated by Western blotting using a dilution series of sp6 with known concentrations. Equivalents of 15 ng were used for digestion experiments and subsequently detected by Western blotting. Experiments carried out with recombinant IDE (Calbiochem) were performed in IDE enzyme buffer.
Bestatin, Chymostatin, E-64, Leupeptin, Pepstatin, Phosphoramidon, Pefabloc SC, EDTA, Aprotinin, Antipain were purchased from Roche as part of a protease inhibitors set and used at the following concentrations: 74 μM Antipain; 130 μM Bestatin; 100 μM Chymostatin; 28 μM E-64; 1 μM Leupeptin; 1 μM Pepstatin; 600 nM Phosphoramidon; 4 mM Pefabloc SC; 1.3 mM EDTA; […]. […] (Phoenix Pharmaceuticals and Tocris), TPEN (Calbiochem), and NEM (Roche) were purchased from companies indicated.

T2 sequence (P35559 whole entry): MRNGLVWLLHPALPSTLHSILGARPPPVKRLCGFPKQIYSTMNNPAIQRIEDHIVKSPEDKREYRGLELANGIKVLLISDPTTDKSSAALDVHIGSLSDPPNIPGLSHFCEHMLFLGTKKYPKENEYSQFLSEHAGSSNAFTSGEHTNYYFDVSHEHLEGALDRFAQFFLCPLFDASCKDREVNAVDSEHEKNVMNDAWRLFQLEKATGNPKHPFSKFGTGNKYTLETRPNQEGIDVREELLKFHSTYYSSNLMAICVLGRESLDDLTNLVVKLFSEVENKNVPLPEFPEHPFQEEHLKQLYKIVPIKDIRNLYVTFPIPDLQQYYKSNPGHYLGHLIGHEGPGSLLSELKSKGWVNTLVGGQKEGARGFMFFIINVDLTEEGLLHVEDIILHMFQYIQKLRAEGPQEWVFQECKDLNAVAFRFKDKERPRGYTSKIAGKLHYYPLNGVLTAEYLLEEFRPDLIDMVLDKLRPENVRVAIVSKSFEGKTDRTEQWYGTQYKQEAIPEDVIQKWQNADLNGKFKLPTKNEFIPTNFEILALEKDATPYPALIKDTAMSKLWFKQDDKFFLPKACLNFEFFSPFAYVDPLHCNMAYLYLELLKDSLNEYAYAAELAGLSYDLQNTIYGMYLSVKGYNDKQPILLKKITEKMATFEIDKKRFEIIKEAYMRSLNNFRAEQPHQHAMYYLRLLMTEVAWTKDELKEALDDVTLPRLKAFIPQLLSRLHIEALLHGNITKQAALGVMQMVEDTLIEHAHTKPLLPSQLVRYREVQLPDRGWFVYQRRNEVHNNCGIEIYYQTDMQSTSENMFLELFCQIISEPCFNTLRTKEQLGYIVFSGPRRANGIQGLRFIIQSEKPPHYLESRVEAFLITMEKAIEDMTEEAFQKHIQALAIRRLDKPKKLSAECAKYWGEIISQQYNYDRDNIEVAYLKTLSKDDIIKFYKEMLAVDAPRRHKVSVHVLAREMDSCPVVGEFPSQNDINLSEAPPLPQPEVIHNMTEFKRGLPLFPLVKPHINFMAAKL
T1 sequence (P14735 whole entry): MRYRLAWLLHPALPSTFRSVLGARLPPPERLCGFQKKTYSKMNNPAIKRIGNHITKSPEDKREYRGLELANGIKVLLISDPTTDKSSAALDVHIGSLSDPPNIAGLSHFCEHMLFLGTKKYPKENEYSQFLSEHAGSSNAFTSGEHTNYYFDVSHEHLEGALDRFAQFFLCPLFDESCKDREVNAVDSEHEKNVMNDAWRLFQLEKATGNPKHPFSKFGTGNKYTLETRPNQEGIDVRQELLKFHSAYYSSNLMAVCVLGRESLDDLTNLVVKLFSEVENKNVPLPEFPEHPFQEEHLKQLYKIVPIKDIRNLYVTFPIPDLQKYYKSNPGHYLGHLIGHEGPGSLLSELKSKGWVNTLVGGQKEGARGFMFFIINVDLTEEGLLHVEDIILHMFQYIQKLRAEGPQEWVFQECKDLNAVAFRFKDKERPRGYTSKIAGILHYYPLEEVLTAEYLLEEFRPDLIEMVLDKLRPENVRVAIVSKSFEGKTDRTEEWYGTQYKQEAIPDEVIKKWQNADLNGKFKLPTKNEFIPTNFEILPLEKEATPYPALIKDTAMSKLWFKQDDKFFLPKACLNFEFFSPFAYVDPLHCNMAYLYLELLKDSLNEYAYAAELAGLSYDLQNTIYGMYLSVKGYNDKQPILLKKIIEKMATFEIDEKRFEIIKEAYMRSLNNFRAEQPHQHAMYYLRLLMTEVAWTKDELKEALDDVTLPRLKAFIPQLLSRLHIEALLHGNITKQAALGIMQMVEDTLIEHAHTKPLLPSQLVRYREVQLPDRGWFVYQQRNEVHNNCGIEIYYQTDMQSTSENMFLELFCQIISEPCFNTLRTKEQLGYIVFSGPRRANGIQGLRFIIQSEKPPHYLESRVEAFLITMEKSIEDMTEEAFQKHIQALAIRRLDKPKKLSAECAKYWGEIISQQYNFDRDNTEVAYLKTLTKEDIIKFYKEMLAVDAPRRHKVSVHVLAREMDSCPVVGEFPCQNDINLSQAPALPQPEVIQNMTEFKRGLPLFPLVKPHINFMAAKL

## CC[C@H](C)[C@H](NC(=O)[C@@H]1CCCN1C(=O)[C@H](CCC(=O)O)NC(=O)[C@H](CCC(N)=O)NC(=O)[C@H](CCCCN)NC(=O)[C@H](CCC(N)=O)NC(=O)[C@H](CO)NC(=O)[C@@H]1CCCN1C(=O)[C@@H](NC(=O)[C@@H](NC(=O)[C@@H](NC(=O)[C@H](CCC(=O)O)NC(=O)[C@H](CCC(=O)O)NC(=O)CNC(=O)[C@H](Cc1ccccc1)NC(=O)[C@H](CCCNC(=N)N)NC(=O)[C@H](Cc1ccccc1)NC(=O)[C@H](CO)NC(=O)[C@H](CCC(=O)O)NC(=O)[C@H](C)NC(=O)[C@@H]1CCCN1C(=O)[C@@H]1CCCN1C(=O)[C@H](C)NC(=O)[C@@H](NC(=O)[C@@H]1CCCN1C(=O)[C@H](C)NC(=O)[C@@H]1CCCN1C(=O)[C@@H]1CCCN1C(=O)[C@H](C)NC(=O)[C@@H](NC(=O)[C@@H]1CCCN1C(=O)[C@H](CCC(=O)O)NC(=O)[C@@H]1CCCN1C(=O)[C@H](CCCNC(=N)N)NC(=O)[C@H](CO)NC(=O)[C@H](CCC(N)=O)NC(=O)[C@@H](N)CC(C)C)[C@@H](C)O)[C@@H](C)O)[C@@H](C)O)[C@@H](C)O)[C@@H](C)O)C(=O)N[C@@H](CC(=O)O)C(=O)N[C@@H](CCCCN)C(=O)N[C@@H](CCC(=O)O)C(=O)N[C@@H](CC(C)C)C(=O)N[C@@H](Cc1ccc(O)cc1)C(=O)N1CCC[C@H]1C(=O)N[C@@H](CC(C)C)C(=O)N[C@@H](C)C(=O)N[C@@H](CO)C(=O)N[C@@H](CC(C)C)C(=O)N[C@@H](CCCNC(=N)N)C(=O)N[C@@H](CO)C(=O)N[C@@H](CC(C)C)C(=O)N[C@@H](Cc1ccccc1)C(=O)NCC(=O)N[C@@H](CO)C(=O)N[C@@H](CC(=O)O)C(=O)N1CCC[C@H]1C(=O)N[C@@H](CO)C(=O)N[C@@H](CO)C(=O)N[C@@H](CCC(N)=O)C(=O)O [2x]
[1]
  half-life in in vitro degradation assays: up to 30 min

## CC[C@H](C)[C@H](NC(=O)[C@@H]1CCCN1C(=O)[C@H](CCC(=O)O)NC(=O)[C@H](CCC(N)=O)NC(=O)[C@H](CCCCN)NC(=O)[C@H](CCC(N)=O)NC(=O)[C@H](CO)NC(=O)[C@@H]1CCCN1C(=O)[C@@H](NC(=O)[C@@H](NC(=O)[C@@H](NC(=O)[C@H](CCC(=O)O)NC(=O)[C@H](CCC(=O)O)NC(=O)CNC(=O)[C@H](Cc1ccccc1)NC(=O)[C@H](CCCNC(=N)N)NC(=O)[C@H](Cc1ccccc1)NC(=O)[C@H](CO)NC(=O)[C@H](CCC(=O)O)NC(=O)[C@H](CCC(=O)O)NC(=O)[C@@H]1CCCN1C(=O)[C@@H]1CCCN1C(=O)[C@H](C)NC(=O)[C@@H](NC(=O)[C@@H]1CCCN1C(=O)[C@H](CCC(=O)O)NC(=O)[C@@H]1CCCN1C(=O)[C@H](CCCNC(=N)N)NC(=O)[C@H](CO)NC(=O)[C@H](CCC(N)=O)NC(=O)[C@@H](N)CC(C)C)[C@@H](C)O)[C@@H](C)O)[C@@H](C)O)[C@@H](C)O)C(=O)N[C@@H](CC(=O)O)C(=O)N[C@@H](CCCCN)C(=O)N[C@@H](CCC(=O)O)C(=O)N[C@@H](CC(C)C)C(=O)N[C@@H](Cc1ccc(O)cc1)C(=O)N1CCC[C@H]1C(=O)N[C@@H](CC(C)C)C(=O)N[C@@H](C)C(=O)N[C@@H](CO)C(=O)N[C@@H](CC(C)C)C(=O)N[C@@H](CCCNC(=N)N)C(=O)N[C@@H](CO)C(=O)N[C@@H](CC(C)C)C(=O)N[C@@H](Cc1ccccc1)C(=O)NCC(=O)N[C@@H](CO)C(=O)N[C@@H](CC(=O)O)C(=O)N1CCC[C@H]1C(=O)N[C@@H](CO)C(=O)N[C@@H](CO)C(=O)N[C@@H](CCC(N)=O)C(=O)O [sp6]
[2]
  IC50: 13.8 µM
[3]
  half-life: ~10 min
[4]; 10 ng rIDE, IDE enzyme buffer, 10 ng sp6BY (fluorescence) or VLP/virion lysate (Western blot)
  degradation by recombinant IDE: degraded by recombinant IDE
[5]
  IC50: ~30.1 µM

## insulin-FITC: recombinant FITC-labeled insulin (Sigma)
[4]; 10 ng insulin-FITC, fluorescence, four independent experiments
  amount of rIDE required to cleave with the same efficiency, relative to sp6: 100 fold
